Data from US20260193258A1, “AGENT FOR PROMOTING PHOSPHORYLATION OF eIF2a” (ER Stress Research Institute, Inc., priority 2019, published 2026).

Key:
mouse naive CD4+ T cells = experiment: Th17 cell differentiation-suppressing activity (flow cytometry); type: cell-based; details: Compound No. 1 at 5 μM, halofuginone at 50 nM, 5 days of differentiation culture, FIG. 5
Procedure: Evaluation compound: Compound No. 1 of the present invention was used, and […] thereof was dissolved in 20 μL of DMSO to prepare a 20 mM solution. • Halofuginon: (Cayman Chemical Company)
5 mg was dissolved in 554.2 μL of DMSO to prepare a 20 mM solution. • Th17 cell inducer: A Th17 cell differentiation induction kit containing IL-6 and TGFβ1 as main components (CellXVivo Mouse Th17 Cell Differentiation Kit: R&D Systems) • Mouse helper T cell differentiation induction kit CDK017 (Techne Corporation)
Measurement was performed in accordance with an instruction manual of Techne Corporation. First, a cell culture plate was coated with an anti-hamster CD3 antibody. Mouse spleen cells were isolated into single cells, and mouse naive CD4^+ T cells were isolated using a mouse naive CD4^+ T cell isolation kit (MagCellect). The number of cells was counted. The isolated mouse naive CD4^+ T cells were dispersed in a mouse Th17 differentiation medium at 1×10^6 cells/mL. Compound No. 1 and halofuginone were added to the mouse Th17 differentiation medium at 5 μM and 50 nM, respectively. Next, the medium having the cells dispersed therein was added to the plate coated with the anti-hamster CD3 antibody, and humidified culture was continued for 3 days at 37° C. in the presence of 5% CO2. On the 3rd day, the medium was refreshed by adding an equal amount of the mouse Th17 differentiation medium without removing the original culture medium. Humidified culture was continued for 2 days at 37° C. in the presence of 5% CO2. After the 5 days of differentiation culture, the differentiated mouse Th17 cells were subjected to flow cytometry to analyze the expression of cytokines, and the number of cells differentiated into Th17 cells was determined.

eIF2α = eIF2α phosphorylation-promoting activity (western blotting of 293A cell lysates); type: cell-based; details: 293A cells, 16 hours at 37° C., Compound No. 1 at 5 μM, halofuginone at 50 nM, thapsigargin at 200 nM, FIG. 3
Procedure: • Host cells: 293A cells • Evaluation compound: Compound No. 1 of the present invention was used, and […] thereof was dissolved in 20 μL of DMSO to prepare a 20 mM solution. • Thapsigargin: (Cayman Chemical Company)
10 mg was dissolved in 76.8 mL of DMSO to prepare a 200 μM solution. • Halofuginon: (Cayman Chemical Company)
5 mg was dissolved in 554.2 μL of DMSO to prepare a 20 mM solution.
The above-mentioned 293A cells were seeded in a 96-well plate at 5×10^5 cells/well, and were cultured overnight in a DMEM solution of 10% fetal bovine serum (FBS). The next day, the medium was changed to a DMEM solution of 10% fetal bovine serum (FBS) containing Compound No. 1 at 5 μM, halofuginone at 50 nM, or thapsigargin at 200 nM, and the cells were cultured at 37° C. for 16 hours. After the cells had been washed with a PBS buffer, the cells were lysed with a RIPA buffer to extract proteins, and the proteins were separated according to size by an electrophoresis method of SDS-PAGE. The expression amount of an endoplasmic reticulum stress marker was measured by a western blotting method.

human topoisomerase II = experiment: Human topoisomerase II DNA relaxation assay (ProFoldin kit); type: biochemical; details: 5 μL of evaluation sample solution (100 μM), fluorescence 485/535 nm, FIG. 4
Procedure: (§1) • Evaluation compound: Compound No. 1 of the present invention was used, and […] thereof was dissolved in 20 μL of DMSO to prepare a 20 mM solution. • Camptothecin: (FUJIFILM Wako Pure Chemical Corporation) 100 mg was dissolved in 57.4 mL of DMSO to prepare a 5 mM solution. • Etoposide: (FUJIFILM Wako Pure Chemical Corporation) 25 mg was dissolved in 424.8 μL of DMSO to prepare a 100 mM solution. • Human topoisomerase I/DNA relaxation assay kit […] (Manufactured by ProFoldin) • Human topoisomerase II/DNA relaxation assay kit HD[…] (Manufactured by ProFoldin) Measurement was performed in accordance with an instruction manual of ProFoldin. […] After the reaction, centrifugation was performed at 1,300 rpm for 30 seconds, and the reaction liquid was poured into a spin-column. The spin-column was rotated at 1,300 rpm for 2 minutes, and the liquid that had flowed out of the column was poured into a 96-well black plate. The liquid that had flowed out was subjected to a reaction by adding a fluorescent dye solution (up to 150 μL). The intensity of fluorescence excited with light at 485 nm was measured at 535 nm.

human topoisomerase I = target: T1, human topoisomerase I (Homo sapiens, UniProt P11387); experiment: Human topoisomerase I DNA relaxation assay (ProFoldin kit); type: biochemical; details: 5 μL of evaluation sample solution (100 μM), fluorescence 485/535 nm, FIG. 4
T1 construct: purchased ProFoldin HRA100KE
T1 sequence (P11387 1-765): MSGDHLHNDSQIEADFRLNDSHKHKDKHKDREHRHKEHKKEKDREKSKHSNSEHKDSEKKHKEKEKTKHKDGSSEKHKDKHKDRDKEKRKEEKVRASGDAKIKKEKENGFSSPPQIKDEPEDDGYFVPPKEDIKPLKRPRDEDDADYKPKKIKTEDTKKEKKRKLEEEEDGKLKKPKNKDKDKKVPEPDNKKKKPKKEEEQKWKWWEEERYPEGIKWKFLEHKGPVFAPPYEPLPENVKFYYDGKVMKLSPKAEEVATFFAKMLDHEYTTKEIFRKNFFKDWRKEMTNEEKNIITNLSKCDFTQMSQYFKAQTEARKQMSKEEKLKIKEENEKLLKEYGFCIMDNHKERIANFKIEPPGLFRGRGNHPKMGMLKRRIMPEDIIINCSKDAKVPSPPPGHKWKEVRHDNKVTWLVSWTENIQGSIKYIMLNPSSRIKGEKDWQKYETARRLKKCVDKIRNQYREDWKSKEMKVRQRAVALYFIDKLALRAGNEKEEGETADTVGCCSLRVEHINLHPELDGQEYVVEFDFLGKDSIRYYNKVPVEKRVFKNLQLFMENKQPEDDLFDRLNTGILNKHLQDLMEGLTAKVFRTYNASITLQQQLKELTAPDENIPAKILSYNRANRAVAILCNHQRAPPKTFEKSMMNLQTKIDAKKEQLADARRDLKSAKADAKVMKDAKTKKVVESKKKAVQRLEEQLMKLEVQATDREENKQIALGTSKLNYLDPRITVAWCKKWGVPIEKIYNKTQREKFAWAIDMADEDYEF
Procedure: as §1

Row | Compound | suppression of differentiation from mouse naive CD4+ T cells into Th17 cells (mouse naive CD4+ T cells) | eIF2α phosphorylation-promoting effect (phosphorylated eIF2α expression amount) (eIF2α) | topoisomerase-inhibiting activity, human topoisomerase II (human topoisomerase II) | topoisomerase-inhibiting activity, human topoisomerase I (human topoisomerase I) | other results
1 | O=C(CC1NCCCC1O)Cn1cnc2cc(Br)c(Cl)cc2c1=O (stereo not shown) [halofuginone, reference compound] | capable of inhibiting the induction of differentiation into Th17 cells | eIF2α phosphorylation-promoting effect | – | – | –
2 | COc1cc([C@@H]2c3cc4c(cc3[C@@H](O[C@@H]3O[C@@H]5CO[C@@H](C)O[C@H]5[C@H](O)[C@H]3O)[C@H]3COC(=O)[C@H]23)OCO4)cc(OC)c1O [etoposide, reference compound] | – | – | remarkably reduced topoisomerase II activity | – | –
3 | C/C=C(/C)C(=O)O[C@H]1C(C)=C2[C@H]([C@@H]1OC(=O)CCCCCCC)[C@@](C)(OC(C)=O)C[C@H](OC(=O)CCC)[C@@]1(O)[C@H]2OC(=O)[C@@]1(C)O [thapsigargin, reference compound] | – | eIF2α phosphorylation-promoting effect | – | – | –
4 | CC[C@@]1(O)C(=O)OCc2c1cc1n(c2=O)Cc2cc3ccccc3nc2-1 [camptothecin, reference compound] | – | – | – | remarkably reduced topoisomerase I activity | –
5 | 1-(2-chloro-5-methylphenyl)-4-oxo-7-(4-pyridyl)-naphthyridine [Compound No. 1] | remarkably suppressed differentiation | had an eIF2α phosphorylation-promoting effect | did not show topoisomerase-inhibiting activity | did not show topoisomerase-inhibiting activity | topoisomerase-inhibiting activity, human topoisomerase II (human topoisomerase II; listed as No. 1): free of topoisomerase-inhibiting activity; suppression of differentiation from mouse naive CD4+ T cells into Th17 cells (mouse naive CD4+ T cells; listed as No. 1): has Th17 cell differentiation-suppressing activity; topoisomerase-inhibiting activity, human topoisomerase I (human topoisomerase I; listed as No. 1): free of topoisomerase-inhibiting activity; eIF2α phosphorylation-promoting effect (phosphorylated eIF2α expression amount) (eIF2α; listed as No. 1): eIF2α phosphorylation-promoting effect
